# Data published in patent US20210070748A1, “INHIBITORS OF BRUTONS TYROSINE KINASE” (Pharmacyclics LLC, priority 2015, published 2021).
# What was measured:
# Type in all cases: biochemical
# BTK-WT = target: T1, BTK-WT (Homo sapiens, UniProt Q06187); assay: Btk in vitro inhibitory activity (one of Method A TR-FRET, Method B electrophoretic mobility shift, Method C radiometric filter binding); conditions: D-compounds panel data; read-out: IC50 BTK-WT
# T1 construct: purified from insect cells as a full-length construct containing an N-terminal 6X-His tag; His6 (N); made in house; host or cells: insect cells (baculovirus Sf21 in Method B)
# LCK = LCK (Homo sapiens, UniProt P06239); assay: Inhibition of a panel of kinases, in vitro HotSpot kinase assay: LCK; conditions: D-compounds panel data; 1 μM ATP; read-out: IC50 LCK
# ITK = target: T2, ITK (Homo sapiens, UniProt Q08881); assay: Inhibition of a panel of kinases, in vitro HotSpot kinase assay: ITK; conditions: D-compounds panel data; 1 μM ATP
# T2 sequence (Q08881 1-620): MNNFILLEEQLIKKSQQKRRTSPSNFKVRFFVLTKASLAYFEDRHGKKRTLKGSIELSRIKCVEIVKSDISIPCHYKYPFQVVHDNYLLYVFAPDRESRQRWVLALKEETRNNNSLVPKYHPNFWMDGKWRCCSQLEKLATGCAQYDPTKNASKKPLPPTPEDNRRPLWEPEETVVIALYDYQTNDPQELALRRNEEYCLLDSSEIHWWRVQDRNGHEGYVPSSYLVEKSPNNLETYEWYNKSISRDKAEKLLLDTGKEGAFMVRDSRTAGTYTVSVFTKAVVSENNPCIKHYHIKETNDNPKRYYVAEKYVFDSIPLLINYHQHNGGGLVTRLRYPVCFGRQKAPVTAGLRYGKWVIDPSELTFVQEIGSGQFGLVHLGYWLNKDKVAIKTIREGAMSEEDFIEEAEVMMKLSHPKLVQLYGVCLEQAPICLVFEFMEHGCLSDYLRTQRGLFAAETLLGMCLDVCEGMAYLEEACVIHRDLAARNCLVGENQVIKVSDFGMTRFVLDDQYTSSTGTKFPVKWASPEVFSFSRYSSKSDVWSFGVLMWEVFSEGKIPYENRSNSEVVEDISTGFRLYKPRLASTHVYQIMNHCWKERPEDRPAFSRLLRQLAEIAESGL
# Protocol: (§1) The degree of inhibition of a panel of kinases is determined using the in vitro HotSpot kinase assay (purified enzymes, ^33P-ATP, an appropriate substrate and 1 μM ATP).
# TEC = target: T3, TEC (Homo sapiens, UniProt P42680); assay: Inhibition of a panel of kinases, in vitro HotSpot kinase assay: TEC; conditions: D-compounds panel data; 1 μM ATP
# T3 sequence (P42680 1-631): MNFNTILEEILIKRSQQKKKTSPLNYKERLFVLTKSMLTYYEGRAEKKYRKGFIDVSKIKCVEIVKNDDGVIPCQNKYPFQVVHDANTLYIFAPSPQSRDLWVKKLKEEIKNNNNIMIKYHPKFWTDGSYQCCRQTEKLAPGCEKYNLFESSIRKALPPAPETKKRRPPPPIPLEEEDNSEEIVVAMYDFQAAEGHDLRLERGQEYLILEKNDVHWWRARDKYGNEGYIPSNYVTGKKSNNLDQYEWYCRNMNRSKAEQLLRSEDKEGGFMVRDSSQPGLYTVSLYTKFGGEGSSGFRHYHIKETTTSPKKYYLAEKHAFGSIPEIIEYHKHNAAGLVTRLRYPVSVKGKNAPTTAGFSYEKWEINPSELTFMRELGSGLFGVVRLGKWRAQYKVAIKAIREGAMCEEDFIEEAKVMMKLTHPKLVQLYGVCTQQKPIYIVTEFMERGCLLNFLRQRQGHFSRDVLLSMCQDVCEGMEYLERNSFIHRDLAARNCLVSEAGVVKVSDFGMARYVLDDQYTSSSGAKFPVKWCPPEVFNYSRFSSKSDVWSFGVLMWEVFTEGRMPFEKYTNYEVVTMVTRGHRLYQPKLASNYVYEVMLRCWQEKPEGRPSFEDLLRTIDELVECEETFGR
# Protocol: as §1
# T1 sequence (Q06187 whole entry): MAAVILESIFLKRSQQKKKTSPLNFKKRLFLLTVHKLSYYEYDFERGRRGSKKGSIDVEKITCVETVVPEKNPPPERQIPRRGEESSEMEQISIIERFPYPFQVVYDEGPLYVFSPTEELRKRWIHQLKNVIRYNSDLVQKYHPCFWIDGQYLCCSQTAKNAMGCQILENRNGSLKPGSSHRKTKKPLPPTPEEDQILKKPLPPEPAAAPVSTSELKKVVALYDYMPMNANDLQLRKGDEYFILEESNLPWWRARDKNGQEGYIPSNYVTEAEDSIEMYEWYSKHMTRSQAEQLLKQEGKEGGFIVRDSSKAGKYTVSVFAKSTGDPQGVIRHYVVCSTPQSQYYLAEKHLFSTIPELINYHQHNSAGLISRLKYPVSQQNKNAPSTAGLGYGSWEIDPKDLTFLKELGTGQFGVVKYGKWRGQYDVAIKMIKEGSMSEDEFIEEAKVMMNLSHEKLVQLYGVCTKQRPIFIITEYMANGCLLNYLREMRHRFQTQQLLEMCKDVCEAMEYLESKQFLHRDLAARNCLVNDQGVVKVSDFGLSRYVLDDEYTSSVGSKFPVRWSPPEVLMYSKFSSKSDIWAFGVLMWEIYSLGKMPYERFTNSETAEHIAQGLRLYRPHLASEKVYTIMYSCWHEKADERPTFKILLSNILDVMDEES
# LCK, sequence (P06239 whole entry): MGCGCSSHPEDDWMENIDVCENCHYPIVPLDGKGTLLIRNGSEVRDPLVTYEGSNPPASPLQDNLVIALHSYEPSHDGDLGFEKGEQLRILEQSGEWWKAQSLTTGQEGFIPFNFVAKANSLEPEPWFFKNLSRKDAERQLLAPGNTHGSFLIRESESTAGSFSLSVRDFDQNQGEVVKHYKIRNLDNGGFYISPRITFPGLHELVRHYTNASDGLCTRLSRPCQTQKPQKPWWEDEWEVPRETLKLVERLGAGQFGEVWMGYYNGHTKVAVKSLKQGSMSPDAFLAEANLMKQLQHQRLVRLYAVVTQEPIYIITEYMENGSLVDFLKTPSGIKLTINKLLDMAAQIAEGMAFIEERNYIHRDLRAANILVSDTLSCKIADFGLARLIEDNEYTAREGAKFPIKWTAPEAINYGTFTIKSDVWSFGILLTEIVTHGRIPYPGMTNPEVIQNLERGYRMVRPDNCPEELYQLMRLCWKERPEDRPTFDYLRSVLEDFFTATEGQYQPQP
IC50 (BTK-WT) [µM],IC50 (LCK) [µM],IC50 (ITK) [µM],IC50 (TEC) [µM],SMILES
≤ 0.01,0.1 to 1,0.1 to 1,≤ 0.01,"C[C@@H]1[C@H](NC(=O)c2ccc(C(C)(O)C(F)(F)F)cc2)CCCN1c1cnc(C(N)=O)c(Nc2cnn(C)c2)n1 (single isomer, unassigned) [Example D-213]"
≤ 0.01,0.01 to 0.1,0.1 to 1,≤ 0.01,"C[C@@H]1[C@H](NC(=O)c2ccc(C(C)(O)C(F)(F)F)cc2)CCCN1c1cnc(C(N)=O)c(Nc2cnn(C)c2)n1 (single isomer, unassigned) [Example D-214]"
≤ 0.01,0.1 to 1,1 to 10,0.1 to 1,"Cn1cc(Nc2nc(N3CC(NC(=O)c4ccc(C5CC5)cc4)CC(F)(F)C3)cnc2C(N)=O)cn1 (stereo in doubt) [Example D-190, 5-[(5S)-5-(4-cyclopropylbenzamido)-3,3-difluoropiperidin-1-yl]-3-[(1-methyl-1H-pyrazol-4-yl)amino]pyrazine-2-carboxamide]"
≤ 0.01,0.01 to 0.1,0.1 to 1,0.01 to 0.1,"C[C@@H]1[C@H](NC(=O)c2ccc(C3CC3)cc2F)CCCN1c1cnc(C(N)=O)c(Nc2ccc(N3CCN(C)C[C@@H]3C)cc2)n1 [Example D-12, 5-[(2R,3R)-3-(4-cyclopropyl-2-fluorobenzamido)-2-methylpiperidin-1-yl]-3-({4-[(2S)-2,4-dimethylpiperazin-1-yl]phenyl}amino)pyrazine-2-carboxamide]"
≤ 0.01,0.1 to 1,1 to 10,0.1 to 1,"C[C@@H]1[C@H](NC(=O)c2ccc(C3CC3)cc2F)CCCN1c1cnc(C(N)=O)c(Nc2ccc(N3CCN(C)CC3)nc2)n1 [Example D-13, 5-[(2R,3R)-3-(4-cyclopropyl-2-fluorobenzamido)-2-methylpiperidin-1-yl]-3-{[6-(4-methylpiperazin-1-yl)pyridin-3-yl]amino}pyrazine-2-carboxamide]"
≤ 0.01,0.01 to 0.1,0.1 to 1,0.01 to 0.1,"C[C@@H]1[C@H](NC(=O)c2ccc(C(C)(C)C)cc2)CCCN1c1cnc(C(N)=O)c(Nc2ccc(N3CCN(C)CC3)cc2)n1 [Example D-14, 5-[(2R,3R)-3-(4-tert-butylbenzamido)-2-methylpiperidin-1-yl]-3-{[4-(4-methylpiperazin-1-yl)phenyl]amino}pyrazine-2-carboxamide]"
≤ 0.01,0.01 to 0.1,0.01 to 0.1,0.01 to 0.1,"Cc1cc(Nc2nc(N3CCC[C@@H](NC(=O)N4Cc5ccccc5C4=O)C3)cnc2C(N)=O)sn1 [Example D-15, N-[(3R)-1-{5-carbamoyl-6-[(3-methyl-1,2-thiazol-5-yl)amino]pyrazin-2-yl}piperidin-3-yl]-1-oxo-2,3-dihydro-1H-isoindole-2-carboxamide]"
≤ 0.01,0.01 to 0.1,0.1 to 1,0.01 to 0.1,"C[C@@H]1[C@H](NC(=O)c2ccc(C3CC3)cc2Cl)CCCN1c1cnc(C(N)=O)c(Nc2ccc(N3CCN(C)CC3)cc2)n1 [Example D-16, 5-[(2R,3R)-3-(2-chloro-4-cyclopropylbenzamido)-2-methylpiperidin-1-yl]-3-{[4-(4-methylpiperazin-1-yl)phenyl]amino}pyrazine-2-carboxamide]"
≤ 0.01,0.1 to 1,0.1 to 1,0.1 to 1,"C[C@@H]1[C@H](NC(=O)c2ccc(C3CC3)c(Cl)c2)CCCN1c1cnc(C(N)=O)c(Nc2ccc(N3CCN(C)CC3)cc2)n1 [Example D-17, 5-[(2R,3R)-3-(3-chloro-4-cyclopropylbenzamido)-2-methylpiperidin-1-yl]-3-{[4-(4-methylpiperazin-1-yl)phenyl]amino}pyrazine-2-carboxamide]"
≤ 0.01,0.1 to 1,0.1 to 1,0.01 to 0.1,"C[C@@H]1[C@H](NC(=O)c2ccc(C3CC3)nc2)CCCN1c1cnc(C(N)=O)c(Nc2cnn(C)c2)n1 [Example D-18, 5-[(2R,3R)-3-(6-cyclopropylpyridine-3-amido)-2-methylpiperidin-1-yl]-3-[(1-methyl-1H-pyrazol-4-yl)amino]pyrazine-2-carboxamide]"
≤ 0.01,0.1 to 1,0.1 to 1,0.01 to 0.1,"CN1CCN(C(=O)c2ccc(Nc3nc(N4CCC[C@@H](n5ccc6cc(C7CC7)ccc6c5=O)C4)cnc3C(N)=O)cc2)CC1 [Example D-169, 5-[(3R)-3-(6-cyclopropyl-1-oxo-1,2-dihydroisoquinolin-2-yl)piperidin-1-yl]-3-{[4-(4-methylpiperazine-1-carbonyl)phenyl]amino}pyrazine-2-carboxamide]"
0.01 to 0.1,0.01 to 0.1,> 10,0.1 to 1,"C/C=C/c1ccc(C(=O)N[C@@H]2CCCN(c3cnc(C(N)=O)c(Nc4cc(C)ns4)c3)[C@@H]2C)c(F)c1 [Example D-170, 5-[(2R,3R)-3-{2-fluoro-4-[(1E)-prop-1-en-1-yl]benzamido}-2-methylpiperidin-1-yl]-3-[(3-methyl-1,2-thiazol-5-yl)amino]pyridine-2-carboxamide]"
0.01 to 0.1,0.1 to 1,> 10,0.1 to 1,"Cc1cc(Nc2nc(N3CCC[C@@H](c4ncc(-c5ccccc5)[nH]4)C3)cnc2C(N)=O)sn1 [Example D-171, 3-[(3-methyl-1,2-thiazol-5-yl)amino]-5-[(3R)-3-(5-phenyl-1H-imidazol-2-yl)piperidin-1-yl]pyrazine-2-carboxamide]"
0.01 to 0.1,0.1 to 1,> 10,0.1 to 1,"Cc1cc(Nc2nc(N3CCC[C@H](c4ncc(-c5ccccc5)[nH]4)C3)cnc2C(N)=O)sn1 [Example D-172, 3-[(3-methyl-1,2-thiazol-5-yl)amino]-5-[(3S)-3-(5-phenyl-1H-imidazol-2-yl)piperidin-1-yl]pyrazine-2-carboxamide]"

SMILES,IC50 (BTK-WT) [µM],IC50 (LCK) [µM],IC50 (ITK) [µM],IC50 (TEC) [µM]
"Cn1cc(Nc2nc(N3C4CCC(NC(=O)c5ccc(C6CC6)cc5)C3CC4)cnc2C(N)=O)cn1 (single isomer, unassigned) [Example D-199, 5-[2-(4-cyclopropylbenzamido)-8-azabicyclo[3.2.1]octan-8-yl]-3-[(1-methyl-1H-pyrazol-4-yl)amino]pyrazine-2-carboxamide]",1 to 10,> 10,> 10,1 to 10
"Cn1cc(Nc2nc(N3C4CCC(NC(=O)c5ccc(C6CC6)cc5)C3CC4)cnc2C(N)=O)cn1 (single isomer, unassigned) [Example D-200, 5-[2-(4-cyclopropylbenzamido)-8-azabicyclo[32.1]octan-8-yl]-3-[(1-methyl-1H-pyrazol-4-yl)amino]pyrazine-2-carboxamide]",0.1 to 1,1 to 10,> 10,1 to 10
"Cn1cc(Nc2nc(N3C4CCC(NC(=O)c5ccc(C6CC6)cc5)C3CC4)cnc2C(N)=O)cn1 (single isomer, unassigned) [Example D-201, 5-[2-(4-cyclopropylbenzamido)-8-azabicyclo[3.2.1]octan-8-yl]-3-[(1-methyl-1H-pyrazol-4-yl)amino]pyrazine-2-carboxamide]",≤ 0.01,0.1 to 1,1 to 10,≤ 0.01
"Cn1cc(Nc2nc(N3C4CCC(NC(=O)c5ccc(C6CC6)cc5)C3CC4)cnc2C(N)=O)cn1 (single isomer, unassigned) [Example D-202, 5-[2-(4-cyclopropylbenzamido)-8-azabicyclo[3.2. I]octan-8-yl]-3-[(1-methyl-1H-pyrazol-4-yl)amino]pyrazine-2-carboxamide]",0.01 to 0.1,0.01 to 0.1,1 to 10,0.1 to 1
